Test results taken from patent publication US20080139664A1, “ANTI-GLYCATION AGENTS FOR PREVENTING AGE-, DIABETES-, AND SMOKING-RELATED COMPLICATIONS” (NATIONAL RESEARCH COUNCIL OF CANADA, priority 2001, published 2008).
Structures can show the parent of a compound that is named as a salt. Where two headings read alike, the source gives them in different places.

What was measured:
[1] = tested on: lysozyme; test: ESI-MS of lysozyme glycoforms after incubation with D-ribose; conditions: 37° C., 5 days; for Peak area as % of total area of all glycoforms, 14,569: lysozyme + 2D-ribose − 2H2O (14,569 Da); for Peak area as % of total area of all glycoforms, 14,551: lysozyme + 2D-ribose − 3H2O (14,551 Da); for Peak area as % of total area of all glycoforms, 14,533: lysozyme + 2D-ribose − 5H2O (14,533 Da); for Peak area as % of total area of all glycoforms, 14,515: lysozyme + 2D-ribose − 6H2O (14,515 Da); for Peak area as % of total area of all glycoforms, 14,419: lysozyme + D-ribose − 2H2O (14,419 Da); for Peak area as % of total area of all glycoforms, 14,401: lysozyme + D-ribose − 3H2O (14,401 Da); for Peak area as % of total area of all glycoforms, 14,437: lysozyme + D-ribose − H2O (14,437 Da); for Peak area as % of total area of all glycoforms, 14,496: lysozyme + D-ribose − H2O with one carboxymethylated Lys residue (14,496 Da); for Peak area as % of total area of all glycoforms, 14,364: lysozyme with one carboxymethylated Lys residue (14,364 Da); for Peak area as % of total area of all glycoforms, 14,305: unmodified lysozyme (14,305 Da);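 for all read-outs here: lysozyme incubated with D-ribose, with or without anti-glycation agents, then separated by reversed-phase HPLC and analysed by electrospray mass spectrometry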
Description: The effect of anti-glycation agents on the accumulation of glycated forms (glycoforms) of protein was evaluated by using electrospray mass spectrometry (ESI-MS). As the molecular mass of BSA was too large to monitor the small mass changes of its glycoforms, lysozyme was incubated with D-ribose and anti-glycants. Lysozyme and its glycoforms were isolated by RP-HPLC and analyzed by mass spectrometry.
Samples of lysozyme (0.756 mM; 4.54 mM of Lys residues) and D-ribose (50 mM) were incubated in the presence and absence of the selected anti-glycation agents at 37° C. for 5 days and subjected to electrospray mass spectrometry (ESI-MS) in order to characterize the protein intermediates as well as carboxymethylated lysozyme. Prior to MS measurements, the proteins were isolated by reversed phase-HPLC and were semi-dried by freeze drying.

[2] = tested on: bovine serum albumin (BSA)
[3] = tested on: bovine serum albumin (BSA); test: Fluorescamine assay of free primary amino groups of BSA incubated with D-ribose; format: biochemical; conditions: free primary amino group on BSA after 5 days at 37° C.; agent at 16.8 times IC50; 64% without agent
Description: Fluorescamine assay (Yeboah F. et al., J. Agric. Food Chem. 48, 2766-2774 (2000)) was performed on incubated mixtures of BSA and D-ribose, with or without the identified anti-glycation agents. The mixtures contained BSA (0.075 mM protein concentration or 4.53 mM of Lys residue concentration) and D-ribose (50 mM). […] The fluorescamine assay determines the number of free lysine residues of BSA. In this experiment, the final volume of the incubation mixtures was 10 mL and the incubation time was 5 days at 37° C. Prior to the fluorescamine assay, the proteins were isolated by reverse phase HPLC. The protein content was determined using the Bio-Rad protein determination reagent (Bradford method). The fluorescamine assay was done in triplicate.

[4] = tested on: bovine serum albumin (BSA); test: Maillard fluorescence-based assay of AGEs formation, IC50 determination (BSA + D-ribose); conditions: for maximum percentage of the inhibition: Maillard fluorescence, listed if significantly lower than 100%
[5] = inhibition of Maillard fluorescence development, 0.075 mM BSA, 50 mM D-ribose, 37° C., 5 days

O=c1cc(-c2ccc(O)c(O)c2)oc2cc(O)cc(O)c12 [Luteolin]
Peak area as % of total area of all glycoforms, 14,569 [1]: 5.2% | Peak area as % of total area of all glycoforms, 14,551 [1]: 3.0% | Peak area as % of total area of all glycoforms, 14,533 [1]: 3.9% | Peak area as % of total area of all glycoforms, 14,515 [1]: 1.4% | Peak area as % of total area of all glycoforms, 14,419 [1]: 6.3% | Peak area as % of total area of all glycoforms, 14,401 [1]: 2.1% | Peak area as % of total area of all glycoforms, 14,437 [1]: 21.2% | Peak area as % of total area of all glycoforms, 14,496 [1]: 0.8% | Peak area as % of total area of all glycoforms, 14,364 [1]: 1.1% | Peak area as % of total area of all glycoforms, 14,305 [1]: 51.4% | IC50 [2]: 60 µM | Unreacted amino group [3]: 60%

N[C@@H](Cc1ccc(O)c(O)c1)C(=O)O [L-DOPA]
Peak area as % of total area of all glycoforms, 14,569 [1]: 3.0% | Peak area as % of total area of all glycoforms, 14,551 [1]: 0.7% | Peak area as % of total area of all glycoforms, 14,533 [1]: 0.8% | Peak area as % of total area of all glycoforms, 14,515 [1]: 0.7% | Peak area as % of total area of all glycoforms, 14,419 [1]: 2.1% | Peak area as % of total area of all glycoforms, 14,401 [1]: 1.8% | Peak area as % of total area of all glycoforms, 14,437 [1]: 21.1% | Peak area as % of total area of all glycoforms, 14,496 [1]: 1.2% | Peak area as % of total area of all glycoforms, 14,364 [1]: 3.9% | Peak area as % of total area of all glycoforms, 14,305 [1]: 64.7% | IC50 [2]: 75 µM | Unreacted amino group [3]: 60%

O=c1cc(-c2ccc(O)c(O)c2)oc2ccc(O)cc12 [6,3′,4′-Trihydroxyflavone]
Peak area as % of total area of all glycoforms, 14,569 [1]: 4.0% | Peak area as % of total area of all glycoforms, 14,551 [1]: 4.0% | Peak area as % of total area of all glycoforms, 14,533 [1]: 1.6% | Peak area as % of total area of all glycoforms, 14,515 [1]: 0.6% | Peak area as % of total area of all glycoforms, 14,419 [1]: 8.8% | Peak area as % of total area of all glycoforms, 14,401 [1]: 0.3% | Peak area as % of total area of all glycoforms, 14,437 [1]: 21.5% | Peak area as % of total area of all glycoforms, 14,496 [1]: 0.0% | Peak area as % of total area of all glycoforms, 14,364 [1]: 2.0% | Peak area as % of total area of all glycoforms, 14,305 [1]: 56.4% | IC50 [4, 5]: > 4000 µM

CCCCCCCCCCCCCCCC(=O)OC[C@@H](NC(=O)C(Cl)Cl)[C@H](O)c1ccc([N+](=O)[O-])cc1 [Chloramphenicol palmitate]
IC50 [4, 5]: > 4000 µM

O=[N+]([O-])c1ncc[nH]1 [2-Nitroimidazole]
IC50 [4, 5]: > 4000 µM

Nc1ncc([N+](=O)[O-])cn1 [2-Amino-5-nitropyrimidine]
Peak area as % of total area of all glycoforms, 14,569 [1]: 4.7% | Peak area as % of total area of all glycoforms, 14,551 [1]: 3.8% | Peak area as % of total area of all glycoforms, 14,533 [1]: 2.0% | Peak area as % of total area of all glycoforms, 14,515 [1]: 0.9% | Peak area as % of total area of all glycoforms, 14,419 [1]: 7.7% | Peak area as % of total area of all glycoforms, 14,401 [1]: 0.0% | Peak area as % of total area of all glycoforms, 14,437 [1]: 23.0% | Peak area as % of total area of all glycoforms, 14,496 [1]: 0.0% | Peak area as % of total area of all glycoforms, 14,364 [1]: 3.6% | Peak area as % of total area of all glycoforms, 14,305 [1]: 52.9% | IC50 [4, 5]: 810 µM

Cc1cc2c(C(C)C)c(O)c(O)c(C=O)c2c(O)c1-c1c(C)cc2c(C(C)C)c(O)c(O)c(C=O)c2c1O [Gossypol]
IC50 [4, 5]: 110 µM

NCCc1cc(O)c(O)cc1O [6-Hydroxydopamine]
maximum percentage of the inhibition [4]: 65%) | IC50 [4, 5]: 95 µM

O=c1cc(-c2cccc(O)c2)oc2cc(O)c(O)cc12 [6,7,3′-Trihydroxyflavone]
IC50 [4, 5]: 940 µM

Cc1cc2c(OCC(CNC(C)(C)C)OC(=O)c3ccccc3)cccc2[nH]1 (centres unmarked) [Bopindolol]
IC50 [4, 5]: 170 µM

COC1=C[C@@H]2[C@@H]3Cc4ccc(OC)c(O)c4[C@]2(CCN3C)CC1=O [Sinomenine]
IC50 [4, 5]: > 4000 µM

C[C@H](N)[C@H](O)c1ccc(O)c(O)c1 [Corbadrine]
IC50 [4, 5]: 52 µM

Oc1ccc(Cl)c2cccnc12 [Cloxiquine]
IC50 [4, 5]: 440 µM

CC(CCc1ccccc1)NC(C)C(O)c1ccc(O)cc1 (centres unmarked) [Nylidrin]
IC50 [4, 5]: 1800 µM

NC(=O)N/N=C/c1ccc([N+](=O)[O-])o1 [Nitrofurazone]
Peak area as % of total area of all glycoforms, 14,569 [1]: 4.2% | Peak area as % of total area of all glycoforms, 14,551 [1]: 2.8% | Peak area as % of total area of all glycoforms, 14,533 [1]: 2.4% | Peak area as % of total area of all glycoforms, 14,515 [1]: 1.1% | Peak area as % of total area of all glycoforms, 14,419 [1]: 5.8% | Peak area as % of total area of all glycoforms, 14,401 [1]: 0.0% | Peak area as % of total area of all glycoforms, 14,437 [1]: 21.4% | Peak area as % of total area of all glycoforms, 14,496 [1]: 0.0% | Peak area as % of total area of all glycoforms, 14,364 [1]: 1.6% | Peak area as % of total area of all glycoforms, 14,305 [1]: 60.8% | maximum percentage of the inhibition [4]: 50%) | IC50 [4, 5]: 46 µM

CN1CC(O)C2=C/C(=N/NC(N)=O)C(=O)C=C21 (centres unmarked) [Carbazochrome]
IC50 [4, 5]: 3500 µM

NC(=O)c1cc([N+](=O)[O-])cc([N+](=O)[O-])c1 [3,5-Dinitrobenzamide]
IC50 [4, 5]: 780 µM

O=c1c(-c2ccc(O)cc2)coc2cc(O)cc(O)c12 [Genistein]
IC50 [4, 5]: 450 µM

CC(CCc1ccccc1)NCC(=O)c1ccc(O)c(O)c1 (stereo not drawn) [α-(1-Methyl-3-phenyl-propylamino)-3,4-dihydroxyacetophenone hydrochloride]
IC50 [4, 5]: 890 µM

CCOC(=O)[C@@H](N)CS [L-Cysteine ethyl ester]
IC50 [4, 5]: > 4000 µM

CC[C@@]1(O)C[C@H](O[C@H]2C[C@H](N(C)C)[C@H](O[C@H]3C[C@H](O)[C@H](O[C@H]4CCC(=O)[C@H](C)O4)[C@H](C)O3)[C@H](C)O2)c2c(cc3c(c2O)C(=O)c2c(O)cccc2C3=O)[C@H]1C(=O)OC [Aclarubicin]
IC50 [4, 5]: 2500 µM

Nc1ccc(C(=O)O)c(O)c1 [4-Amino-salicylic acid]
IC50 [4, 5]: > 4000 µM

O=c1c2ccccc2[se]n1-c1ccccc1 [Ebselen]
IC50 [4, 5]: > 4000 µM

O=[N+]([O-])c1cc([As](=O)(O)O)ccc1O [Roxarsone]
Peak area as % of total area of all glycoforms, 14,569 [1]: 5.1% | Peak area as % of total area of all glycoforms, 14,551 [1]: 1.3% | Peak area as % of total area of all glycoforms, 14,533 [1]: 1.2% | Peak area as % of total area of all glycoforms, 14,515 [1]: 0.0% | Peak area as % of total area of all glycoforms, 14,419 [1]: 3.1% | Peak area as % of total area of all glycoforms, 14,401 [1]: 0.0% | Peak area as % of total area of all glycoforms, 14,437 [1]: 27.0% | Peak area as % of total area of all glycoforms, 14,496 [1]: 0.0% | Peak area as % of total area of all glycoforms, 14,364 [1]: 0.0% | Peak area as % of total area of all glycoforms, 14,305 [1]: 62.4% | IC50 [4, 5]: 230 µM

D,L-Epinephrine
IC50 [4]: 15 µM

COCC(N)c1ccc(O)c(O)c1 (stereo not drawn) [3,4-Dihydroxy-1-[(α-amino-β-methoxy)ethyl]benzene]
IC50 [4, 5]: 78 µM

Cn1c([N+](=O)[O-])cnc1COC(N)=O [Ronidazole]
IC50 [4, 5]: 950 µM

C=CCN1CC[C@]23c4c5ccc(O)c4O[C@H]2/C(=N/N=C2\CC[C@@]4(O)[C@H]6Cc7ccc(O)c8c7[C@@]4(CCN6CC=C)[C@H]2O8)CC[C@@]3(O)[C@H]1C5 [Naloxonazine]
IC50 [4, 5]: 1700 µM

O=C1CCN(c2ccccc2)N1 [Phenidone]
IC50 [4, 5]: 1300 µM

CC(=O)Nc1ncc([N+](=O)[O-])s1 [Aminitrozole]
IC50 [4, 5]: 82 µM

O=c1cc(-c2ccc(O)c(O)c2)oc2ccccc12 [3′.4′-Dihydroxyflavone]
IC50 [4, 5]: 2600 µM

NC(=O)c1ccc([N+](=O)[O-])cc1Cl [Aklomide]
IC50 [4, 5]: 350 µM

Pyrithioxin
IC50 [4, 5]: > 4000 µM

Cc1cc(-c2ccc(/N=N/c3ccc4c(S(=O)(=O)O)cc(S(=O)(=O)O)c(N)c4c3O)c(C)c2)ccc1/N=N/c1ccc2c(S(=O)(=O)O)cc(S(=O)(=O)O)c(N)c2c1O [Evans blue]
IC50 [4, 5]: 3700 µM
